# In patent EP1201238A1, “SULFONAMIDE DERIVATIVES AND REMEDIES FOR ALLODYNIA” (ONO PHARMACEUTICAL CO., LTD., priority 1999, dated 2001):
# Columns and labels:
# Allodynia caused by PGE2 = assay: inhibitory effect on allodynia caused by intrathecal injection of PGE2; assay type: in vivo, male ddY mice; settings: for % of allodynia expression, Allodynia caused by PGE2: mixture of PGE2 (10ng/body) and compound (10ng/body) injected intrathecally, mice, touch-stimulus score 5 min after administration, 100% = all subjects score 2; for anti-allodynia effect (in words): summary of tables 1, 2 and 3 (PGE2- and PGF2α-induced allodynia, mice)
# Description: (1) an inhibitory effect on allodynia caused by intrathecal injection of PGE2
# (§1) Five or six male ddY mice weighing 22± 2 g in a group were used. Under non-anesthesia, the mixture (5µL) of PGE2 (10ng/body) and a compound (10ng/body) with 27-gauge was injected intrathecally with stainless injection needle (0.33 mm, o.d.) between fifth and sixth vertebra lumbar of a mouse, 5. min after administration, to tail from belly side of a mouse was touch-stimulated with brush and allodynia was evaluated by score.
# (§2) Score is 0: no changed, 1: escaped from touch-stimulus and squeaked, 2: escaped vigorously from touch-stimulus and squeaked loudly. When All the subjects got score 2, it was evaluated as 100% of allodynia expression.
# (§3) For example, When, in six mice, score 0 is one, score 1 is three and score 2 is two, % of allodynia expression is below: ((0×1) + (1×3) + (2×2))/(6×2)× 100 = 58. 3(%) [formula]
# [1] = toxicity, maximal tolerated dose with oral administration; settings: in vivo, rat
# Description: The toxicity of the compounds of the present invention is very low and therefore the compounds may be considered safe for pharmaceutical use. For example, the maximal tolerated dose with oral administration of the compounds of formula (I), (IV) and (VI) was more than 2000 mg/kg in rat.
# [2] = test system: Allodynia caused by PGF2α; assay: inhibitory effect on allodynia caused by intrathecal injection of PGF2α; assay type: in vivo, male ddY mice; settings: mixture of PGF2α (1µg/body) and compound (100ng/body) injected intrathecally, mice, touch-stimulus score 15min after administration
# Description: as §1, §2, §3
# (2) an inhibitory effect on allodynia caused by intrathecal injection of PGF2α
# The experiment was the same as (1) with the exception that the mixture of PGF2α (1µg/body) and a compound (100ng/body) was used as administered drug and allodynia was evaluated at 15min after administration.
Structure (SMILES),"% of allodynia expression, Allodynia caused by PGE2 (Allodynia caused by PGE2) [%]",MTD [1] [mg/kg],"% of allodynia expression, Allodynia caused by PGF2α [2] [%]",anti-allodynia effect (in words) (Allodynia caused by PGE2)
"O=C(O)CCC/C=C\[C@H]1[C@@H]2CC[C@@H](C2)[C@@H]1CNS(=O)(=O)c1ccccc1I [comparison compound 2, 6-[(1R,2S,3S,4S)-3-(2-iodophenylsulfonylaminomethyl)bicyclo[2.2.1]heptan-2-yl]-5Z-hexenoic acid, reference compound]",83.3 ± 10.5,,,
"O=C(O)CCC/C=C\[C@H]1[C@H]2CC[C@H](C2)[C@@H]1CNS(=O)(=O)c1ccccc1I [formula (I), 6-[(1S,2S,3S,4R)-3-(2-iodophenylsulfonylaminomethyl)bicyclo[2.2.1]heptan-2-yl]-5Z-hexenoic acid]",8.3 ± 8.3,> 2000,8.3 ± 8.3,
"O=C(O)CCC/C=C\[C@H]1[C@@H]2CC[C@@H](C2)[C@@H]1CNS(=O)(=O)c1cc(F)ccc1F [Formula(IV), 6-[(1R,2S,3S,4S)-3-(2,5-difluorophenylsulfonylaminomethyl)bicyclo[2.2.1]heptan-2-yl]-5Z-hexenoic acid]",8.3 ± 8.3,> 2000,0.0 ± 0.0,effective
"O=C(O)CCC/C=C\[C@H]1[C@H]2CC[C@H](C2)[C@@H]1CNS(=O)(=O)c1c(Cl)cccc1Cl [comparison compound 3, 6-[(1S,2S,3S,4R)-3-(2,6-dichlorophenylsulfonylaminomethyl)bicyclo[2.2.1]heptan-2-yl]-5Z-hexenoic acid, reference compound]",91.7 ± 8.3,,,no effect
"CC1(C)[C@H]2C[C@H](NS(=O)(=O)c3ccccc3)[C@@H](C/C=C\CCCC(=O)O)[C@@H]1C2 [formula (VI), 7-[(1S,2S,3S,5R)-3-benzenesulfonylamino-6,6-dimethylbicyclo[3.1.1]heptan-2-yl]-5Z-heptenoic acid]",8.3 ± 8.3,> 2000,0.0 ± 0.0,have activity
"CC1(C)[C@H]2C[C@H](NS(=O)(=O)Cc3ccccc3)[C@@H](C/C=C\CCCC(=O)O)[C@@H]1C2 [comparison compound 5, 7-[(1S,2S,3S,5R)-3-benzylsulfonylamino-6,6-dimethylbicyclo[3.1.1]heptan-2-yl]-5Z-heptenoic acid, reference compound]",83.3 ± 10.5,,83.3 ± 10.5,
"O=C(O)CCC/C=C\[C@H]1[C@H]2CC[C@H](C2)[C@@H]1CNS(=O)(=O)c1ccc(F)c(F)c1 [Formula(III), 6-[(1S,2S,3S,4R)-3-(3,4-difluorophenylsulfonylaminomethyl)bicyclo[2.2.1]heptan-2-yl]-5Z-hexenoic acid]",0.0 ± 0.0,,8.3 ± 8.3,effective
"O=C(O)CCC/C=C\[C@H]1[C@@H]2CC[C@@H](C2)[C@@H]1CNS(=O)(=O)c1ccc(F)c(F)c1 [comparison compound 4, 6-[(1R,2S,3S,4S)-3-(3,4-difluorophenylsulfonylaminomethyl)bicyclo[2.2.1]heptan-2-yl]-5Z-hexenoic acid, reference compound]",75.0 ± 11.2,,,
"O=C(O)CCC/C=C\[C@H]1[C@H]2CC[C@H](C2)[C@@H]1CNS(=O)(=O)c1ccccc1F [formula (II), 6-[(1S,2S,3S,4R)-3-(2-fluorophenylsulfonylaminomethyl)bicyclo[2.2.1]heptan-2-yl]-5Z-hexenoic acid]",0.0 ± 0.0,,8.3 ± 8.3,
"COc1ccc(S(=O)(=O)N[C@H]2C[C@H]3C[C@@H]([C@@H]2C/C=C\CCCC(=O)O)C3(C)C)cc1 [formula (V), 7-[(1S,2S,3S,5R)-3-(4-methoxybenzenesulfonylamino)-6,6-dimethylbicyclo [3.1.1]heptan-2-yl]-5Z-heptenoic acid]",8.3 ± 8.3,,8.3 ± 8.3,have activity
"O=C(O)CCC/C=C\[C@H]1[C@H]2CC[C@H](C2)[C@@H]1CNS(=O)(=O)c1ccccc1Cl [comparison compound 1, 6-[(1S,2S,3S,4R)-3-(2-chlorophenylsulfonylaminomethyl)bicyclo[2.2.1]heptan-2-yl]-5Z-hexenoic acid, reference compound]",100 ± 0.0,,91.7 ± 8.3,no effect
"O=C(O)CCC/C=C\C[C@H]1[C@@H]2CC[C@@H](C2)[C@@H]1NS(=O)(=O)c1ccccc1 [comparison compound 6, reference compound]",90.0 ± 10.0,,60.0 ± 10.0,
